The subject of one experiment is A2780cis cells. The experiment can be described thus: SRB proliferation assay for non-light-sensitive complexes, A2780cis. The note with it: for Resistance factor: A2780cis vs A2780, SRB assay; for IC50: ambient light, 24 h exposure, 72 h recovery, SRB. The format is cell-based, human. As to the method:
Cytotoxicity of platinum(II) precursors: To investigate the relationship between the Pt^IV diazidodihydroxido complexes and their Pt^II dichlorido analogues trans-[PtCl2(Am1)(Am2)] (where Am=amine), the cytotoxicities of complexes trans-[PtCl2(MA)(Py)] (5) and trans-[PtCl2(MA)(Tz)] (6) towards A2780 and its cisplatin resistant sub-line A2780cis were determined. The toxicity was not photoinduced, as the complexes are not photoactive. Complexes 5 and 6 are highly cytotoxic towards A2780 and A2780cis cells compared to the reported trans-Pt^II compounds.[18]–[22] Complex 5 is about three-times more cytotoxic than complex 6 towards A2780 cells. […]
Cell Culture and Proliferation Assay for Non-light-sensitive Complexes
The A2780 ovarian cell line was obtained from the ECACC (European Collection of Animal Cell Culture, Salisbury, United Kingdom). The cells were maintained in RPMI 1640 media, which was supplemented with 10% foetal calf serum, 1% L-glutamine, and 1% penicillin/streptomycin. All cells were grown at 310 K in an humidified atmosphere containing 5% CO2. Stock solutions of the Pt complexes were freshly prepared in DMSO to assist dissolution and then diluted into saline and medium (maximum final concentration of DMSO 1% and saline 6%). After plating 5000 A2780 cells per well on day 1, Pt complexes were added to the cancer cells on day 3 at concentrations ranging from 0.01 to 100 µM, depending on the preliminary activity data obtained in screening assays. Cells were exposed to the complexes for 24 h, washed with PBS, supplied with fresh medium, and allowed to grow for three doubling times (72 h), and then the protein content (proportional to cell survival) was measured using the sulforhodamine B (SRB) assay.[7] The standard errors are based on two independent experiments of three replicates each.[8]
On the technique in general: Sulforhodamine B stains cellular protein and so reports cell mass.

Another experiment deals with calf thymus DNA. The experiment can be described thus: Characterisation of DNA adducts with thiourea. It counts as binding. As to conditions: in the dark; for Total adducts displaced from DNA by thiourea after 24 h: 10 mM thiourea; for Bifunctional adducts after 24 h: thiourea probe. As to the method: Characterisation of DNA adducts: The experiments aimed at the characterisation of DNA adducts of photoactivated 1 or 2, and of 5 or 6 in the dark were conducted employing thiourea as a probe of DNA monofunctional adducts of trans-platinum(II) compounds[24] (for details, see the Supporting Information). After 24 h, 55(±10), 48(±2), 66(±1) and 64(±3) % of the total adducts of platinum complexes 1, 2, 5 and 6, respectively, were displaced from DNA by thiourea (Figure 10). Thus, only 45, 52, 34 and 36 % of DNA adducts formed by 1 or 2 (photoactivated) and 5 or 6 (in the dark), respectively, had evolved to bifunctional lesions after this time interval.
Figure 10 Quantification of DNA adducts by thiourea. Dependence of rb on incubation time for calf thymus DNA modified by photoactivated: A) 1, or B) 2 (420 nm light); and in the dark with: C) 5, or D) 6. Reactions were stopped with thiourea (10 mM; 10 min, 310 K; ▴) or without thiourea (▪), and the platinum associated with DNA was assessed. […]
assayed by differential pulse polarography for free, unbound platinum.[16] The amount of platinum bound to DNA was calculated by subtracting the amount of free (unbound) platinum from the total amount of platinum present in the reaction.
Transcription mapping of DNA adducts in vitro
The 212-bp DNA fragment used was yielded from cutting of pSP73KB DNA by NdeI and HpaI restriction endonucleases (a substantial part of the nucleotide sequence is […]
This fragment contained T7 RNA polymerase promoter (in the upper strand close to its 3'-end). This linear DNA fragment was randomly modified by transplatin (8), cisplatin (7), 5 and 6 in the dark and by 1 and 2 photoactivated with 420 nm light at rb = 0.01, for RNA synthesis by T7 RNA polymerase. The fragments produced in RNA synthesis on the template modified by the platinum complexes were analysed by a 6% polyacrylamide/8M urea sequencing gel.
Quantification of DNA adducts
Double-helical calf thymus DNA at a concentration of 32 µg/mL was incubated with 5 or 6 in the dark, or alternatively, DNA mixed with 1 or 2 was irradiated for 30min (λirrad = 420 nm) and then incubated in the dark in 10 mM NaClO4 at 310 K. At various time intervals the aliquots were withdrawn and the platination reaction was stopped by addition of 10 mM thiourea, samples were incubated for 10 min at […] and then quickly cooled to 253 K. In parallel experiments, 100 mM NaCl was added to the samples instead of thiourea and samples were immediately cooled to 253 K.
(§1) Platinum associated with DNA was assessed by flameless atomic absorption […]
(§2) Quantification of DNA interstrand cross-links […]

Experiment [1] concerns 212 bp NdeI–HpaI fragment of pSP73KB DNA. As to the kind of experiment: Transcription mapping of DNA adducts (T7 RNA polymerase). It counts as biochemical. The note with it: in the dark; rb=0.01. As to the method: Sequence preference of DNA adducts: Transcription mapping experiments were performed to determine the DNA binding sites for Pt complexes. The experiments were carried out using a linear 212 bp DNA fragment (sequence in Figure 9 B), randomly modified by transplatin (8), cisplatin (7), 5 or 6 in the dark or by 1 and 2 photoactivated with blue light (420 nm) at rb=0.01 (rb is defined as the number of the molecules of platinum complex coordinated per nucleotide residue), for RNA synthesis by T7 RNA polymerase (Figure 9 A, lanes 8, 7, 5, 6, 1 and 2, respectively). RNA synthesis on the template modified by the platinum complexes produced fragments of defined sizes (Figure 9 A), which indicate the sites where RNA synthesis was prematurely terminated. It should be noted that RNA synthesis by T7 RNA polymerase is prematurely terminated only due to the platinum adducts on the template strand.[23] […] The ability to bind to A and C sites is consistent with the result from AMP and CMP binding experiments (Figure S18 in the Supporting Information).
Figure 9 Inhibition of RNA synthesis by T7 RNA polymerase on the NdeI–HpaI fragment of pSP73KB plasmid DNA modified by complexes 5 or 6, cisplatin (7) or transplatin (8) in the dark, or with photoactivated 1 or 2 (420 nm light). A) Autoradiogram of a polyacrylamide (6 %)/urea (8 M) sequencing gel. […]
assayed by differential pulse polarography for free, unbound platinum.[16] The amount of platinum bound to DNA was calculated by subtracting the amount of free (unbound) platinum from the total amount of platinum present in the reaction. […]
This fragment contained T7 RNA polymerase promoter (in the upper strand close to its 3'-end). […] The fragments produced in RNA synthesis on the template modified by the platinum complexes were analysed by a 6% polyacrylamide/8M urea sequencing gel.
Quantification of DNA adducts […]
as §1, §2

Values joined by “and” are separate entries in the source; they are usually repeats but may differ in a detail not shown here. Equal entries are not always repeated.

As for `C[NH2+][Pt@SP3-2]([Cl])([Cl])[n+]1ccccc1` [Complex 5, trans-[PtCl2(MA)(Py)]], in the experiment on A2780cis cells, the Resistance factor is 1.25 and the IC50 – broadly, the midpoint of a concentration-inhibition curve – is 3 ± 0.7 µM. Further, in the experiment with calf thymus DNA, the “Total adducts displaced from DNA by thiourea after 24 h” value was 66(±1) %; the “Bifunctional adducts after 24 h” value is 34% and 34±1%. The Sequence specificity result in experiment [1] was “stop sites mainly at G and C and G, C”.

In the experiment with A2780cis cells, `C[NH2+][Pt@SP3-2]([Cl])([Cl])[n+]1ccsc1` [Complex 6, trans-[PtCl2(MA)(Tz)]] returned a Resistance factor of 1.0 and an IC50 of 6.8 ± 0.9 µM. Also, in the experiment with calf thymus DNA, the “Total adducts displaced from DNA by thiourea after 24 h” value is listed as 64(±3) %; the “Bifunctional adducts after 24 h” value is 36% and 36±2%. Besides, the Sequence specificity result in experiment [1] is “stop sites mainly at G and C and G, C”.

Source of the values: publication PMC4280898, “Diazido Mixed-Amine Platinum(IV) Anticancer Complexes Activatable by Visible-Light Form Novel DNA Adducts” (Chemistry (Weinheim an Der Bergstrasse, Germany), 2013).
